The supplement of paper PMC10307832

Key:
Assay in all cases: relative viability (nuclei count vs DMSO), 5 days (fraction); higher = more cells survive
[1] = compound: CC1(C)CCC(CN2CCN(c3ccc(C(=O)NS(=O)(=O)c4ccc(NCC5CCOCC5)c([N+](=O)[O-])c4)c(Oc4cnc5[nH]ccc5c4)c3)CC2)=C(c2ccc(Cl)cc2)C1 [Venetoclax] + Cc1nc(NC(=O)N2CCC[C@H]2C(N)=O)sc1-c1ccnc(C(C)(C)C(F)(F)F)c1 [Alpelisib] (partner 2 µM)
In short: (§1)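 Dosing by pin tool came one day after lung cancer cell lines were seeded in 1536-well plates, using either one drug or a fixed anchor-drug dose plus five library-drug doses (not always all listed) in √10 steps. After 5 days, nuclei were counted on 4× images. Relative viability is treated-well nuclei count divided by vehicle-well nuclei count, and values are medians of duplicate plates.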

[2] = compound: Cn1cnc2c(F)c(Nc3ccc(Br)cc3Cl)c(C(=O)NOCCO)cc21 [Selumetinib] + COc1cc2c(Oc3ccc(NC(=O)C4(C(=O)Nc5ccc(F)cc5)CC4)cc3F)ccnc2cc1OCCCN1CCOCC1 [Foretinib] (partner 0.25 µM)
In short: as §1

[3] = compound: CC1(C)CCC(CN2CCN(c3ccc(C(=O)NS(=O)(=O)c4ccc(NCC5CCOCC5)c([N+](=O)[O-])c4)c(Oc4cnc5[nH]ccc5c4)c3)CC2)=C(c2ccc(Cl)cc2)C1 [Venetoclax] + Cc1nc(Nc2ncc(C(=O)Nc3c(C)cccc3Cl)s2)cc(N2CCN(CCO)CC2)n1 [Dasatinib] (partner 0.075 µM)
In short: as §1

[4] = compound: Cn1cnc2c(F)c(Nc3ccc(Br)cc3Cl)c(C(=O)NOCCO)cc21 [Selumetinib] + N=C(N)NC(=N)NCCc1ccccc1 [Phenformin] (partner 250 µM)
In short: as §1

| Cell Line | relative viability ([1]; first compound 0.01 µM) | relative viability ([1]; first compound 0.03162 µM) | relative viability ([1]; first compound 0.1 µM) | relative viability ([1]; first compound 0.3162 µM) | relative viability ([1]; first compound 1 µM) | relative viability ([2]; first compound 0.02 µM) | relative viability ([2]; first compound 0.06325 µM) | relative viability ([2]; first compound 0.2 µM) | relative viability ([2]; first compound 0.6325 µM) | relative viability ([3]; first compound 0.01 µM) | relative viability ([3]; first compound 0.03162 µM) | relative viability ([3]; first compound 0.1 µM) | relative viability ([3]; first compound 0.3162 µM) | relative viability ([3]; first compound 1 µM) | relative viability ([4]; first compound 0.02 µM) | relative viability ([4]; first compound 0.06325 µM) | relative viability ([4]; first compound 0.2 µM) | relative viability ([4]; first compound 0.6325 µM) |
| --- | --- | --- | --- | --- | --- | --- | --- | --- | --- | --- | --- | --- | --- | --- | --- | --- | --- | --- |
| LOU-NH91 | 0.653 | 0.802 | 0.689 | 0.791 | 0.759 | 0.87 | 0.859 | 0.834 | 0.738 | 0.511 | 0.642 | 0.532 | 0.58 | 0.495 | 0.674 | 0.69 | 0.688 | 0.661 |
| LU99A | 0.432 | 0.545 | 0.548 | 0.522 | 0.505 | 0.898 | 0.729 | 0.83 | 0.699 | 0.625 | 0.632 | 0.659 | 0.516 | 0.583 | 0.905 | 0.799 | 0.85 | 0.835 |
| LXF-289 | 1.05 | 1 | 1.04 | 1.04 | 0.934 | 0.939 | 0.867 | 0.738 | 0.737 | 0.137 | 0.262 | 0.242 | 0.253 | 0.166 | 0.52 | 0.501 | 0.442 | 0.434 |
| NCI-H23 | 0.658 | 0.62 | 0.64 | 0.644 | 0.546 | 0.952 | 0.916 | 0.654 | 0.612 | 0.664 | 0.781 | 0.636 | 0.706 | 0.628 | 0.834 | 0.706 | 0.774 | 0.519 |
| NCI-H322M | 0.918 | 0.881 | 0.836 | 0.764 | 0.752 | 0.853 | 0.782 | 0.704 | 0.757 | 0.291 | 0.239 | 0.237 | 0.246 | 0.24 | 0.668 | 0.561 | 0.57 | 0.574 |
| NCI-H358 | 0.769 | 0.828 | 0.786 | 0.903 | 0.839 | 0.43 | 0.331 | 0.272 | 0.291 | 0.309 | 0.17 | 0.15 | 0.158 | 0.161 | 0.211 | 0.175 | 0.183 | 0.158 |
| NCI-H441 | 0.828 | 0.705 | 0.821 | 0.899 | 0.608 | 0.964 | 0.839 | 0.903 | 0.667 | 0.685 | 0.667 | 0.482 | 0.546 | 0.596 | 0.886 | 0.674 | 0.667 | 0.468 |
| NCI-H460 | 0.539 | 0.446 | 0.446 | 0.472 | 0.447 | 0.949 | 0.899 | 0.886 | 0.404 | 0.597 | 0.532 | 0.401 | 0.527 | 0.478 | 0.479 | 0.397 | 0.309 | 0.176 |
| NCI-H520 | 0.893 | 1.09 | 0.865 | 0.796 | 0.847 | 0.746 | 0.759 | 1.02 | 0.758 | 0.218 | 0.193 | 0.158 | 0.178 | 0.195 | 0.616 | 0.659 | 0.671 | 0.784 |
| NCI-H596 | 0.516 | 0.487 | 0.502 | 0.544 | 0.397 | 0.832 | 0.781 | 0.696 | 0.653 | 0.707 | 0.549 | 0.587 | 0.572 | 0.615 | 0.894 | 0.695 | 0.751 | 0.564 |
| NCI-H647 | 0.703 | 1.05 |  | 1 | 1.01 | 1.19 | 1.21 | 0.842 | 1.02 | 0.16 | 0.218 | 0.162 | 0.238 | 0.228 | 0.592 | 0.488 | 0.512 | 0.414 |
| NCI-H650 | 1.07 | 0.989 |  | 1.13 | 1.01 | 1.07 | 1.18 | 1.21 | 1.17 | 0.488 | 0.539 | 0.453 | 0.484 | 0.432 | 0.521 | 0.407 | 0.551 | 0.54 |
| NCI-H661 | 0.597 | 1.11 | 0.878 | 0.569 | 0.48 | 1.12 | 0.979 | 1.02 | 0.913 | 0.809 | 1.04 | 0.871 | 0.995 | 0.888 | 0.261 | 0.291 | 0.272 | 0.246 |
| NCI-H727 | 0.553 | 0.608 | 0.525 | 0.558 | 0.571 | 0.468 | 0.434 | 0.329 | 0.352 | 0.421 | 0.357 | 0.35 | 0.415 | 0.447 | 0.455 | 0.381 | 0.375 | 0.355 |
| NCI-H838 | 1.11 | 0.953 | 1.04 | 1.04 | 0.955 | 0.907 | 0.915 | 0.859 | 0.796 | 0.367 | 0.288 | 0.303 | 0.312 | 0.279 | 0.502 | 0.481 | 0.505 | 0.474 |
| NCI-H1355 | 0.842 | 0.782 | 0.784 | 0.785 | 0.805 | 0.954 | 0.847 | 0.539 | 0.625 | 0.697 | 0.731 | 0.623 | 0.723 | 0.602 | 0.435 | 0.43 | 0.391 | 0.373 |
| NCI-H1395 | 0.989 | 0.943 | 0.926 | 0.983 | 0.961 | 0.959 | 0.978 | 0.928 | 0.94 | 0.449 | 0.406 | 0.392 | 0.442 | 0.409 | 0.447 | 0.42 | 0.456 | 0.475 |
| NCI-H1437 | 0.985 | 0.989 | 1.05 | 0.938 | 0.926 | 1.33 | 1.3 | 1.17 | 0.708 | 0.508 | 0.494 | 0.274 | 0.44 | 0.478 | 0.269 | 0.232 | 0.216 | 0.243 |
